From PMC10755728, “Inhibitors of the Elastase LasB for the Treatment of Pseudomonas aeruginosa Lung Infections” (ACS Central Science, 2023)
Like-named read-outs stand apart in the source and are kept apart here.

Columns and labels:
LasB [1] = target: T1, LasB (Pseudomonas aeruginosa, UniProt Q02RJ6); test: biochemical; format: biochemical
T1 construct: made in house

[2] = Metabolic stability in human liver S9 fraction; format: in vitro ADME
Plasma stability, mouse = format: in vitro ADME
MMP-1 = target: T2, MMP-1 (Homo sapiens, UniProt P03956); test: MMP-1 inhibition assay; format: biochemical; details: read-out: % inhibition MMP-1
T2 construct: purchased AnaSpec (Fremont, CA, USA)
T2 sequence (P03956 100-469): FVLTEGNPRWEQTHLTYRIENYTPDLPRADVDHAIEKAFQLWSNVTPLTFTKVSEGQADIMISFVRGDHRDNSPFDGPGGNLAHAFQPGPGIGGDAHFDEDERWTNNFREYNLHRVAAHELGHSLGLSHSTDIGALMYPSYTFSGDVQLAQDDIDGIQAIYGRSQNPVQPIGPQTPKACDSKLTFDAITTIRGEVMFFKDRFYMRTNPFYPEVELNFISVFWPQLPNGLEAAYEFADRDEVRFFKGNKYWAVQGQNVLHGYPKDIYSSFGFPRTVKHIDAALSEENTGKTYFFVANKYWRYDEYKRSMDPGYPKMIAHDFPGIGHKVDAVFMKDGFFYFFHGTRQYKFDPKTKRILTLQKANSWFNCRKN

MMP-2 = target: T3, MMP-2 (Homo sapiens, UniProt P08253); test: MMP-2 inhibition assay; format: biochemical; details: read-out: % inhibition MMP-2
T3 construct: purchased AnaSpec (Fremont, CA, USA)
T3 sequence (P08253 110-660): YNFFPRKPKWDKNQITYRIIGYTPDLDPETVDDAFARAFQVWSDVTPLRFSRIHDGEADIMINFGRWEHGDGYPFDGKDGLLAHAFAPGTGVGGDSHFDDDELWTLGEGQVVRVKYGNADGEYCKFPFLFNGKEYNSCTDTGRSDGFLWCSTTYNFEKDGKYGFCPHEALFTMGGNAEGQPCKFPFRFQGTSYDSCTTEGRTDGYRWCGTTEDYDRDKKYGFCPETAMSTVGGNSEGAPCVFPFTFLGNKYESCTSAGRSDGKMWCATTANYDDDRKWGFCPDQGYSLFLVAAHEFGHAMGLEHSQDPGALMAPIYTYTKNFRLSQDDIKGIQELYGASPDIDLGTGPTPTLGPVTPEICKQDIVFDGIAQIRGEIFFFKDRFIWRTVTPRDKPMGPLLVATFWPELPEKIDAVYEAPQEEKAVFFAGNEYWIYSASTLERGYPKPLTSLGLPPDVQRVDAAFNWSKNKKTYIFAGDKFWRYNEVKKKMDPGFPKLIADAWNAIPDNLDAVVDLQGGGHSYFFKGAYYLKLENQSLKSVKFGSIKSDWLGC

MMP-3 = target: T4, MMP-3 (Homo sapiens, UniProt P08254); test: MMP-3 inhibition assay; format: biochemical; details: read-out: % inhibition MMP-3
T4 construct: purchased AnaSpec (Fremont, CA, USA)
T4 sequence (P08254 100-477): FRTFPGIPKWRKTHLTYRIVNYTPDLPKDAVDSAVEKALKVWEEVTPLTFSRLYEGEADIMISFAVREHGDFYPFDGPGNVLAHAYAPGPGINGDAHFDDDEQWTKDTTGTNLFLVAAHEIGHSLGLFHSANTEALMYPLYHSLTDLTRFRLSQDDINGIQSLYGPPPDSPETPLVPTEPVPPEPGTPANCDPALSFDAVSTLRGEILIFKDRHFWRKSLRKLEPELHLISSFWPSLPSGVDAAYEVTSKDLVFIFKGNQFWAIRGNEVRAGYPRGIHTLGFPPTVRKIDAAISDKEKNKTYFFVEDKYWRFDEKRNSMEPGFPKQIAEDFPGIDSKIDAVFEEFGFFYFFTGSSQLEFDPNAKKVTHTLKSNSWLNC

TACE = target: T5, TACE (Homo sapiens, UniProt P78536); test: TACE inhibitor screening kit; format: biochemical; details: read-out: % inhibition TACE
T5 construct: purchased Sigma-Aldrich (Saint Louis, MO)
T5 sequence (P78536 215-824): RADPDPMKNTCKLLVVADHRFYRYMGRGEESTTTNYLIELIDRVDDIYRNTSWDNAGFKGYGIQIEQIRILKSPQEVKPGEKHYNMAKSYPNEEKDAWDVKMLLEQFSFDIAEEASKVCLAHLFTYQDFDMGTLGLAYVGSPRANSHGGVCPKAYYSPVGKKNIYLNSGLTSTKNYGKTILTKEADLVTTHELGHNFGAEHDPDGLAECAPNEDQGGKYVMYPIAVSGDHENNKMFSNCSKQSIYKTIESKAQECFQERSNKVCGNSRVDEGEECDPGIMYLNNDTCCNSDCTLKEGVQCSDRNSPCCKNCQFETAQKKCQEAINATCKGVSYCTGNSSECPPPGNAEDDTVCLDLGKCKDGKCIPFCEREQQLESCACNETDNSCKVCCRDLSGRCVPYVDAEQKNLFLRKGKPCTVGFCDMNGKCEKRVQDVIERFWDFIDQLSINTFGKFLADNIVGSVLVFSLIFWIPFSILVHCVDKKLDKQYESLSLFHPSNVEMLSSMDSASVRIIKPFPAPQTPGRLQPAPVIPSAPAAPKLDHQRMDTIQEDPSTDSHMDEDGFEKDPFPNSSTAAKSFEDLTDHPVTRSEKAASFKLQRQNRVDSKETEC

COX-1 = target: T6, COX-1 (Ovis aries, UniProt P05979); test: Fluorometric COX-1 inhibitor assay; format: biochemical, human
T6 construct: purchased Abcam (Cambridge, UK)
T6 sequence (P05979 25-600): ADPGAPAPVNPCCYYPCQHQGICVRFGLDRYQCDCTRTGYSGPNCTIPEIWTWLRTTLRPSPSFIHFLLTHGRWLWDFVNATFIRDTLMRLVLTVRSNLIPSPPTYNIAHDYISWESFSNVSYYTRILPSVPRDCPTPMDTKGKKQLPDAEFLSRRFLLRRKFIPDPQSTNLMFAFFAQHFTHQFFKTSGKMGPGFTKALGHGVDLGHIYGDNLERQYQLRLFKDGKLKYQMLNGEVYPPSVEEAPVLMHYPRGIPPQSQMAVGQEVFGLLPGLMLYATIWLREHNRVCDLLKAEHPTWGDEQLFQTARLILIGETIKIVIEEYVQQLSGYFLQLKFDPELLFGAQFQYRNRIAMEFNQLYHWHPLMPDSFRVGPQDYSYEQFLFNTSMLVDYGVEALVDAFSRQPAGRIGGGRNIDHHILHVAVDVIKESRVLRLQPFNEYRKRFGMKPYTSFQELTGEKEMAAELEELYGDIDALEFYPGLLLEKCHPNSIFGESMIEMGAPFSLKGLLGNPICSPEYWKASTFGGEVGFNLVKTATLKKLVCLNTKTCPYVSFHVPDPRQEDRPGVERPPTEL

ColH-PD = ColH-PD (Hathewaya histolytica, UniProt Q46085); test: biochemical; format: biochemical, Clostridium histolyticum; details: read-out: % inhibition ColH-PD @1 µM
Chain of ColH-PD (Q46085 331-721 limits assumed): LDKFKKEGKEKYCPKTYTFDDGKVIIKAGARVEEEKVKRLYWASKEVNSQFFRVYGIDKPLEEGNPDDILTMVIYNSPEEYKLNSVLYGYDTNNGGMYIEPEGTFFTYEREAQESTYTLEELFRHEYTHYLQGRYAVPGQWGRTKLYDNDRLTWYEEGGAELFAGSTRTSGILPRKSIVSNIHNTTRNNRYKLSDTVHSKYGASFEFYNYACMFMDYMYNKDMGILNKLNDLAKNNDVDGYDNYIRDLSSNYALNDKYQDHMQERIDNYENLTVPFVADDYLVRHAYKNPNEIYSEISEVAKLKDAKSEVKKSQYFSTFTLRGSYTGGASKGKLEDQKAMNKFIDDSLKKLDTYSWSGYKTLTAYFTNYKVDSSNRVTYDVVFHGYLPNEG

[3] = Microsomal stability, mouse liver microsomes; format: in vitro ADME; details: C57BL6, mouse, pooled liver microsomes
[4] = Microsomal stability, minipig liver microsomes; format: in vitro ADME; details: Göttingen, pooled liver microsomes
[5] = Plasma stability, minipig; format: in vitro ADME; details: Göttingen, pooled plasma, species profiling, read-out: Plasma T1/2 Minipig (Göttingen)
LasB [6] = format: in vivo, mouse; details: compared to the vehicle group; 4b 10 mg/kg TID, levofloxacin 25 mg/kg
3D lung organoids = test: Lung organoid assay; format: cell-based, human
HEK293 = details: human, 48 h, 100 µM
zebrafish embryos = test: Zebrafish embryo toxicity
Experimental: Zebrafish embryo toxicity. The experiment was performed according to a procedure described
in the literature55 with minor modifications using zebrafish embryos of the AB wild-type line at 1
day post fertilization (dpf).
Zebrafish embryo toxicity.

[7] = system: Galleria mellonella larvae infected with wt PA14; test: G. mellonella infection model
[8] = system: A549 cells treated with P. aeruginosa PAO1 and PA14 supernatants; test: A549 cells challenged with P. aeruginosa culture supernatants
Experimental: Cells were maintained according to standard cell
PA14 csn production. The csn of wt PA14 and ΔlasB PA14 was produced as we previously
Validation of the effect of LasB inhibitors on A549 cells in vitro. The experiment was performed
as described previously.32 The Picrosirius red assay was performed by washing the csn-challenged
cells (± inhibitor) 3x with PBS followed by an incubation with Bouin solution (Sigma) at RT for
20 min. The cells were incubated with 0.1% Picrosirius red dye (ab150681) at RT for 2 h. Then,
they were washed once with 0.01 N HCl, and the matrix was dissolved in 0.01 N NaOH. The
absorption was measured at 570 nm using a PHERAstar plate reader (BMG Labtech). By dividing
the absorbance of each sample by the absorbance of the healthy sample, the relative collagen
quantity was determined. For each condition, the experiment was performed three times. To
determine the rescue of A549 cells treated with 5% wt PA14 csn using our compounds, the LasB
inhibitors were used at 2, 0.5, 0.1 and 0.05 µM. The compounds were incubated in F12K medium,
Cell detachment was then evaluated, and a Trypan Blue cell
cells/well were seeded into a flat bottom 96-well plate (Corning™ Costar™) and incubated at 37
were tested against 10% (v/v) P. aeruginosa PAO1 csn diluted in DMEM starting from 10 µM
and 20 µM, respectively. Compound was initially dissolved in DMSO, and a low final assay
concentration of 0.5% (v/v) was applied to minimize the proteolytic effect of DMSO on the
bacterial culture supernatant. In addition, cells were challenged with 10% (v/v) of ΔlasB PAO1 to

T1 sequence (Q02RJ6 198-498): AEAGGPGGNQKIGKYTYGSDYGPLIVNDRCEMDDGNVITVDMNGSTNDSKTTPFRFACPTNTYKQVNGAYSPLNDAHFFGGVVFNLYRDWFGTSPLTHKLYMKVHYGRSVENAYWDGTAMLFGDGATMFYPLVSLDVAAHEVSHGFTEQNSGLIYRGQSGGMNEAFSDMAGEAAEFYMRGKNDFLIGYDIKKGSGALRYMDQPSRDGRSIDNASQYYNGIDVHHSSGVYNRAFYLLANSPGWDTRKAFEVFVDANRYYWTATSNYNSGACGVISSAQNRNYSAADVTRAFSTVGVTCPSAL

In the case of `CC(C)CC(C(=O)Nc1ccc(C(F)(F)F)cc1)P(=O)(O)O` (centres unmarked) [Compound 4b], the IC50 (LasB [1]; FRET-based assay, read-out: LasB IC50) is reported as 26.3 ± 7.6 nM, the IC50 (LasB [1]; LasB IC50, FRET-based assay) is reported as roughly 25 nM and the IC50 (LasB [1]; LasB IC50 in presence of 1% pulmonary surfactant, 1% pulmonary surfactant) is reported as 76 ± 23 nM. The microsomal CLint at 1 μM [2] was less than 5.8 µL/min/mg, the half-life (Plasma stability, mouse; C57BL6, mouse, pooled plasma, species profiling, read-out: Plasma T1/2 Mouse (C57BL6)) was greater than 4 h and the half-life at 1 μM (Plasma stability, mouse; mouse plasma, read-out: Plasma T1/2 Mouse) was greater than 2.5 h. For the same compound, the inhibition at 100 µM (MMP-1) was 21 ± 1%, the inhibition at 100 µM (MMP-2) was 25 ± 4% and the inhibition at 100 µM (MMP-3) was 29 ± 8%. It also gave an inhibition at 100 µM (TACE) of less than 10%, an inhibition at 100 µM (COX-1) of less than 10% and an inhibition at 1 µM (ColH-PD) of 14 ± 8%. It also gave a microsomal CLint [3] of less than 11.6 µL/min/mg, a microsomal CLint [4] of less than 11.6 µL/min/mg and a half-life [5] greater than 4 h. For the same compound, the “LasB protein levels in blood” value (LasB [6]) was “strong reduction”, the “viability of lung organoids challenged with 5% PA14 csn” value (3D lung organoids; 5% PA14 csn, 48 h, MTT) was “improved in a dose-dependent manner” and the “toxic effects on nontreated lung organoids” value (3D lung organoids; concentrations tested up to 100 μM) was “did not have significant toxic effects”. The “% growth inhibition HEK293” value (HEK293) was 11 ± 1%, the Survival rate (zebrafish embryos; 12.5 µM) was 100% and the Survival rate (zebrafish embryos; 25 µM) was 100%. For the same compound, the Screening observations (zebrafish embryos; 25 µM, 5 dpf) was 1 nsb, the Survival rate (zebrafish embryos; 50 µM) was 100% and the Screening observations (zebrafish embryos; 50 µM, 5 dpf) was 2 nsb. For the same compound, the Survival rate (zebrafish embryos; 100 μM) was 100%, the Screening observations (zebrafish embryos; 100 µM, 3 dpf) was 1 edema and the Screening observations (zebrafish embryos; 100 µM, 4 dpf) was 1 edema. The Screening observations (zebrafish embryos; 100 µM, 5 dpf) was 1 nsb, 1 edema, the “survival of larvae infected with wt PA14” value ([7]; 1 nmol 4b, 10.7 nmol tobramycin, or both, 17% in the wild type) was 33% and the “survival in the PBS treated groups (not infected)” value ([7]; PBS with 4b, tobramycin or combination of both) was 100%. The “reduction of cleavage of collagen” value ([8]; A549 cells, 15% (v/v) wt PA14 csn, 3.15 μM) was 20% and the “LasB-related cytotoxicity in csn-treated A549 cells” value ([8]; PAO1 or PA14 csn) was “dose-dependent reduction of LasB-related cytotoxicity”.
